Results published in patent US11168073B2, “3,3-difluoroallylamines or salts thereof and pharmaceutical compositions comprising the same” (YUHAN CORPORATION, priority 2018, dated 2021).
Structures can show the parent of a compound that is named as a salt.

Columns and labels:
Assay type in all cases: biochemical
[1] = biological target: T1, recombinant human DAO (diamine oxidase) (Homo sapiens, UniProt P19801); test: Activity evaluation on recombinant human DAO (Amplex Red/HRP-coupled assay, 1 mM putrescine substrate); details: 1 mM putrescine, read-out: Inhibitory Activity (IC50, nM) DAO
T1 construct: purchased R&D systems
T1 sequence (P19801 20-751): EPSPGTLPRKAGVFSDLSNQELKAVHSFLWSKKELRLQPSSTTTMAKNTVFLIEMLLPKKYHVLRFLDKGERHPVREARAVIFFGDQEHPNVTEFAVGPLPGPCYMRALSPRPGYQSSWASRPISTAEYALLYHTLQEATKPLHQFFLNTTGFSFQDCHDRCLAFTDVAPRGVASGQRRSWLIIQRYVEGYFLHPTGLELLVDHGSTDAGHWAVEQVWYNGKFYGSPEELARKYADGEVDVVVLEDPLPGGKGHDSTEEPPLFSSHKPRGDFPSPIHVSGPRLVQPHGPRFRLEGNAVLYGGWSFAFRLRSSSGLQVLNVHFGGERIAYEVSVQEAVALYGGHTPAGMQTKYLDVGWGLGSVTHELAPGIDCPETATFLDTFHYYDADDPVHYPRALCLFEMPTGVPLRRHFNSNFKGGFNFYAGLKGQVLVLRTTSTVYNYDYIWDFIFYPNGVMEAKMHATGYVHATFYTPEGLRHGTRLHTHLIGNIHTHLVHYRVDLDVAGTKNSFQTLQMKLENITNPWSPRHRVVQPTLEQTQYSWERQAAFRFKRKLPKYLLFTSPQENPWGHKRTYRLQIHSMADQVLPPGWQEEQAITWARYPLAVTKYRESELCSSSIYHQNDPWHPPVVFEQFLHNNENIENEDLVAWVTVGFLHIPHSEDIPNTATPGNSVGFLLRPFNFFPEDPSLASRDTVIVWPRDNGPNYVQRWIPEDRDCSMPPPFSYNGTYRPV
In short: (§1)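 Each oxidase is tested with its own substrate: MAO-A with 0.5 mM tyramine, MAO-B with 1 mM benzylamine, DAO with 1 mM putrescine. After 30 min enzyme-compound preincubation at 37 °C, Amplex Red (200 uM) plus HRP (1 U/mL) reports H2O2 as fluorescence; IC50 is fitted from eight-point curves.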

[2] = biological target: T2, recombinant human MAO-B (monoamine oxidase-B) (Homo sapiens, UniProt P27338); test: Activity evaluation on recombinant human MAO-B (Amplex Red/HRP-coupled assay, 1 mM benzylamine substrate); details: 1 mM benzylamine, read-out: Inhibitory Activity (IC50, nM) MAO-B
T2 construct: purchased Sigma-Aldrich
T2 sequence (P27338 1-520): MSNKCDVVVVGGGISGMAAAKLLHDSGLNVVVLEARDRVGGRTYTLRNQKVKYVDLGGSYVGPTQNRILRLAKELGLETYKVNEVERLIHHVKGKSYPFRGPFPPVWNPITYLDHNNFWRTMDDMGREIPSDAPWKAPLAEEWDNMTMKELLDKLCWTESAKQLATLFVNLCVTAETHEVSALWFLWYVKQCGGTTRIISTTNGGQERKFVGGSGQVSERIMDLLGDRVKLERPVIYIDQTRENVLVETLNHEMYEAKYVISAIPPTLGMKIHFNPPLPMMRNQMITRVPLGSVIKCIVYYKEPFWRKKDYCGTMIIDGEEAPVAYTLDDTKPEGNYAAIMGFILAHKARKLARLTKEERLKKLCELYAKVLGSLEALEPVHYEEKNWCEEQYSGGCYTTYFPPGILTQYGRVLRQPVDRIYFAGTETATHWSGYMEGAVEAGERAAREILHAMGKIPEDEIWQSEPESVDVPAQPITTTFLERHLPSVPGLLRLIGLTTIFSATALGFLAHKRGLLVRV
In short: as §1

[3] = biological target: T3, recombinant human MAO-A (monoamine oxidase-A) (Homo sapiens, UniProt P21397); test: Activity evaluation on recombinant human MAO-A (Amplex Red/HRP-coupled assay, 0.5 mM tyramine substrate); details: 0.5 mM tyramine, read-out: Inhibitory Activity (IC50, nM) MAO-A
T3 construct: purchased Sigma-Aldrich
T3 sequence (P21397 1-527): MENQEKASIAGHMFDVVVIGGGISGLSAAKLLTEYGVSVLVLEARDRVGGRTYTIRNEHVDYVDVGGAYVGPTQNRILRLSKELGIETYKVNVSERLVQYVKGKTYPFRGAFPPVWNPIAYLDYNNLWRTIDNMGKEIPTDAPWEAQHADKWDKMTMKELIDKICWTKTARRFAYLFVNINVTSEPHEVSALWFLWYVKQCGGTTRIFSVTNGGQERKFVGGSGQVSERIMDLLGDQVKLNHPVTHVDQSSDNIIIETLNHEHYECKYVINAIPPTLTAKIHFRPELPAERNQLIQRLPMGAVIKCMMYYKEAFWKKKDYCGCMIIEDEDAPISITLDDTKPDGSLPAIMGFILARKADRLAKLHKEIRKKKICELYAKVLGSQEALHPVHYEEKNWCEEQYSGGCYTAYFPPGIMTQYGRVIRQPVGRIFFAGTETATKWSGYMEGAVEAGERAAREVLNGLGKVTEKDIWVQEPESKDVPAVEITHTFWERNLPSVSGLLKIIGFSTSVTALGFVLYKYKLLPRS
In short: as §1

recombinant human VAP-1 = biological target: T4, recombinant human VAP-1 (Homo sapiens, UniProt Q16853); test: Activity evaluation on recombinant human VAP-1 (Amplex Red/HRP-coupled hydrogen peroxide assay, benzylamine substrate); details: recombinant human VAP-1; 30 min preincubation at 37° C.; 1 mM benzylamine; read-out: Inhibitory Activity (IC50, nM) human VAP-1
T4 construct: purchased R&D systems
T4 sequence (Q16853 1-763): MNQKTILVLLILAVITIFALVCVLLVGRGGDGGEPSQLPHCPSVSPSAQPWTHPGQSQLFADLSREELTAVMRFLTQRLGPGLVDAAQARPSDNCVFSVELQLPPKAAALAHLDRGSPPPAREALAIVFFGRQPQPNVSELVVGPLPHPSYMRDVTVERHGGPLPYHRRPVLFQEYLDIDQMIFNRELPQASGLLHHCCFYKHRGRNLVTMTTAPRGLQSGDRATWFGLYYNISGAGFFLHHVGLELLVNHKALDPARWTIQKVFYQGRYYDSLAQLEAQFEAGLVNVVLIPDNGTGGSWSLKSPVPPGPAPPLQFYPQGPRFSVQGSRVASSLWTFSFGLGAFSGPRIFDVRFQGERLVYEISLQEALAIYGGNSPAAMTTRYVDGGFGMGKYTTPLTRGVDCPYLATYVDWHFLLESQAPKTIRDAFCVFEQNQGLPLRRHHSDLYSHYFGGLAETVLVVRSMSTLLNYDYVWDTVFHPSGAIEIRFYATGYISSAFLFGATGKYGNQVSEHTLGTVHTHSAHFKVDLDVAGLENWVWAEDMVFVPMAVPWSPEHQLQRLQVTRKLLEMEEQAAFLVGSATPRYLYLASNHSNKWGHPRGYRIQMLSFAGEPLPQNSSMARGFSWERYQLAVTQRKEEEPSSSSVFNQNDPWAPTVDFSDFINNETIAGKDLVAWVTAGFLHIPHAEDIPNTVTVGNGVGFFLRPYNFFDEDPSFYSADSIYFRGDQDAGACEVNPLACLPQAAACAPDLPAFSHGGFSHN
In short: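 Hydrogen peroxide from benzylamine (1 mM) oxidation by human recombinant VAP-1 detected via HRP-coupled Amplex Red (200 uM) fluorescence, kinetic over 1–2 h. Enzyme and compound preincubated 30 min at 37 °C, pH 7.4 phosphate; 8-point dose response, signal-rate decrease versus DMSO control fitted to four-parameter logistic for IC50.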

Compound | IC50 [1] [nM] | IC50 [2] [nM] | IC50 [3] [nM] | IC50 (recombinant human VAP-1) [nM]
NCC(Cn1ncn(Cc2ccc(-c3cc(F)c4[nH]c(=O)ccc4c3)s2)c1=O)=C(F)F [Example 137, 6-[5-[[1-[2-(aminomethyl)-3,3-difluoro-allyl]-5-oxo-1,2,4-triazol-4-yl]methyl]-2-thienyl]-8-fluoro-1H-quinolin-2-one Trifluoroacetate] | > 100000 | > 100000 | > 100000 | 0.3
Cc1c(-c2ccc(Cn3cnn(CC(CN)=C(F)F)c3=O)s2)ccc2c1NCCO2 [Example 139, 2-[2-(aminomethyl)-3,3-difluoro-allyl]-4-[[5-(5-methyl-3,4-dihydro-2H-1,4-benzoxazin-6-yl)-2-thienyl]methyl]-1,2,4-triazol-3-one Trifluoroacetate] | 73000 | 21000 | 21000 | 1
NCC(Cn1ncn(Cc2ccc(-c3ccc4c(c3)NC(=O)CO4)s2)c1=O)=C(F)F [Example 141, 6-[5-[[1-[2-(aminomethyl)-3,3-difluoro-allyl]-5-oxo-1,2,4-triazol-4-yl]methyl]-2-thienyl]-4H-1,4-benzoxazin-3-one Trifluoroacetate] | 16000 | 20000 | 8100 | 0.6
CN1C(=O)COc2cc(-c3ccc(Cn4cnn(CC(CN)=C(F)F)c4=O)s3)ccc21 [Example 144, 7-[5-[[1-[2-(aminomethyl)-3,3-difluoro-allyl]-5-oxo-1,2,4-triazol-4-yl]methyl]-2-thienyl]-4-methyl-1,4-benzoxazin-3-one Trifluoroacetate] | > 10000 | > 100000 | > 100000 | 0.7
NCC(Cn1ncn(Cc2ccc(-c3cnc4c(c3)CCCN4)s2)c1=O)=C(F)F [Example 145, 2-[2-(aminomethyl)-3,3-difluoro-allyl]-4-[[5-(5,6,7,8-tetrahydro-1,8-naphthyridin-3-yl)-2-thienyl]methyl]-1,2,4-triazol-3-one Ditrifluoroacetate] | > 100000 | > 100000 | > 100000 | 0.8
CS(=O)(=O)c1ccc(-c2csc(Cn3cnn(CC(CN)=C(F)F)c3=O)c2)cc1 [Example 146, 2-[2-(aminomethyl)-3,3-difluoro-allyl]-4-[[4-(4-methylsulfonylphenyl)-2-thienyl]methyl]-1,2,4-triazol-3-one Trifluoroacetate] | 9200 | 33000 | > 100000 | 1.1
NCC(Cn1ncn(Cc2cc(-c3ccc(N4CCNCC4)cc3)cs2)c1=O)=C(F)F [Example 147, 2-[2-(aminomethyl)-3,3-difluoro-allyl]-4-[[4-(4-piperazin-1-ylphenyl)-2-thienyl]methyl]-1,2,4-triazol-3-one Ditrifluoroacetate] | 2600 | > 100000 | > 100000 | 11
NCC(Cn1ncn(Cc2cc(-c3ccc(C(F)(F)F)nc3)cs2)c1=O)=C(F)F [Example 148, 2-[2-(aminomethyl)-3,3-difluoro-allyl]-4-[[4-[6-(trifluoromethyl)-3-pyridyl]-2-thienyl]methyl]-1,2,4-triazol-3-one Trifluoroacetate] | 6300 | 8700 | > 100000 | 0.7

The next lines start with the values.

IC50 [1] [nM] | IC50 [2] [nM] | IC50 [3] [nM] | IC50 (recombinant human VAP-1) [nM] | Compound
> 100000 | > 100000 | > 100000 | 0.4 | NCC(Cn1ncn(Cc2ccc(-c3cc(F)c4c(c3)CCC(=O)N4)s2)c1=O)=C(F)F [Example 136, 6-[5-[[1-[2-(aminomethyl)-3,3-difluoro-allyl]-5-oxo-1,2,4-triazol-4-yl]methyl]-2-thienyl]-8-fluoro-3,4-dihydro-1H-quinolin-2-one Trifluoroacetate]
13000 | 15000 | > 100000 | 0.1 | CN1C(=O)CCc2cc(-c3ccc(Cn4cnn(CC(CN)=C(F)F)c4=O)s3)ccc21 [Example 138, 6-[5-[[1-[2-(aminomethyl)-3,3-difluoro-allyl]-5-oxo-1,2,4-triazol-4-yl]methyl]-2-thienyl]-1-methyl-3,4-dihydroquinolin-2-one Trifluoroacetate]
6800 | 8000 | 6600 | 0.8 | CN1CCOc2cc(-c3ccc(Cn4cnn(CC(CN)=C(F)F)c4=O)s3)ccc21 [Example 140, 2-[2-(aminomethyl)-3,3-difluoro-allyl]-4-[[5-(4-methyl-2,3-dihydro-1,4-benzoxazin-7-yl)-2-thienyl]methyl]-1,2,4-triazol-3-one Trifluoroacetate]
16000 | 32000 | > 100000 | 0.2 | NCC(Cn1ncn(Cc2ccc(-c3ccc4c(c3)NC(=O)OC4)s2)c1=O)=C(F)F [Example 142, 7-[5-[[1-[2-(aminomethyl)-3,3-difluoro-allyl]-5-oxo-1,2,4-triazol-4-yl]methyl]-2-thienyl]-1,4-dihydro-3,1-benzoxazin-2-one Trifluoroacetate]
> 10000 | 6400 | > 100000 | 0.2 | NCC(Cn1ncn(Cc2ccc(-c3ccc4c(c3)COC(=O)N4)s2)c1=O)=C(F)F [Example 143, 6-[5-[[1-[2-(aminomethyl)-3,3-difluoro-allyl]-5-oxo-1,2,4-triazol-4-yl]methyl]-2-thienyl]-1,4-dihydro-3,1-benzoxazin-2-one Trifluoroacetate]
